Experimental data taken from patent US10980788B2, “Therapy for treating malignancies” (Agios Pharmaceuticals, Inc., priority 2018, dated 2021).
Read-outs that look alike come from different tables or passages of the source.

Tests used:
[1] = Food effect on pharmacokinetics of COMPOUND 1 in healthy subjects (phase 1, open-label, randomized, two-period crossover); type: in vivo, human; conditions: for Tmax / half-life / AUC(0-inf) / AUC(0-t) / Cmax: plasma, single oral dose 500 mg
Method: The food effect on COMPOUND 1 PK following administration of a single oral dose of 500 mg of COMPOUND 1 in healthy subjects aged 18-55 years was evaluated in a was a phase 1, open-label, randomized, two-period crossover study.
The study was conducted according to the United States Food and Drug Administration (FDA) 2002 Guidance for Industry “Food-Effect Bioavailability and Fed Bioequivalence Studies”.
Treatments A and B, each comprising a single oral dose of 500 mg of COMPOUND 1, were administered as shown in Table 1. • A (fasted): two 250 mg tablets administered after an overnight fast (approximately 10 hr). • B (fed): two 250 mg tablets administered after a standardized high-fat breakfast, consumed within 30 minutes prior to COMPOUND 1 dosing.
The standardized FDA high-fat content meal contains the equivalent of ˜150 protein calories, ˜250 carbohydrate calories, and ˜500-600 fat calories, and comprises two eggs fried in butter, two strips of bacon, two slices of toast with butter, four ounces of hash brown potatoes (fried with butter), and eight ounces (240 mL) of whole milk.
Of the 30 subjects enrolled, 15 were randomized to sequence AB and 15 were randomized to sequence BA.
Blood samples for the analysis of COMPOUND 1 concentrations were collected predose and 0.5, 1, 2, 3, 4, 6, 9, 12, 24, 48, 72, 120, 168, 240, 336, and 504 hr postdose. Plasma concentrations of COMPOUND 1 were determined using a validated liquid chromatography with tandem mass spectrometry method. PK parameters were calculated using WinNonlin (Pharsight Corporation, Version 6.2.1). Linear mixed model analysis was performed on natural logarithm (In) transformed maximum observed concentration (Cmax), area under the concentration-time curve from Hour 0 to the last measurable concentration (AUC0-t), and area under the concentration-time curve extrapolated to infinity (AUC0-∞). The analyses were performed using the SAS MIXED procedure. […] Inter-subject variability was determined using the geometric coefficient of variation percent (CV %).

[2] = Safety and tolerability of a single oral dose of 500 mg COMPOUND 1 in healthy subjects; type: in vivo, human; conditions: single oral dose of 500 mg, fed and fasted conditions
Method: Safety and tolerability were also evaluated for a single oral dose of 500 mg of COMPOUND 1.
Incidence of adverse events and serious adverse events was assessed.

[3] = fed condition (test) versus fasted condition (reference), 500 mg, n = 27
[4] = high-fat meal compared with fasted condition, 500 mg single oral dose
[5] = human, po, 500 mg, fasted, n = 29, geometric mean
[6] = human, po, 500 mg, fed (high-fat meal), n = 27, geometric mean

Geometric mean ratio (%) AUC0-t [1, 3]: 125.6%
Geometric mean ratio (%) AUC0-∞ [1, 3]: 124.3%
Geometric mean ratio (%) Cmax [1, 3]: 197.8%
Increase in extent of exposure as assessed by AUC0-t [1, 4]: 25.6%
Increase in extent of exposure as assessed by AUC0-∞ [1, 4]: 24.3%
Increase in mean Cmax [1, 4]: ~2 fold
Increase in AUC ([1]; high-fat meal prior to dosing compared with fasted, 500 mg single oral dose): ~25%
Tmax ([1]; human, po, 500 mg, fasted, n = 29, median, read-out: Tmax): 3 h
Tmax ([1]; human, po, 500 mg, fed (high-fat meal), n = 27, median, read-out: Tmax): 3 h
half-life ([1]; human, po, 500 mg, fasted, n = 29, arithmetic mean): 55.4 h
AUC(0-inf) [1, 5]: 143 µg·h/mL
AUC(0-t) [1, 5]: 136 µg·h/mL
Cmax [1, 5]: 2.27 µg/mL
half-life ([1]; human, po, 500 mg, fed (high-fat meal), n = 27, arithmetic mean): 53.2 h
AUC(0-inf) [1, 6]: 174 µg·h/mL
AUC(0-t) [1, 6]: 166 µg·h/mL
Cmax [1, 6]: 4.49 µg/mL
Tmax ([1]; fasted, n = 29, median): 3.03 h
Structure (SMILES): N#Cc1ccnc(N2C(=O)CC[C@H]2C(=O)N(c2cncc(F)c2)[C@H](C(=O)NC2CC(F)(F)C2)c2ccccc2Cl)c1 [COMPOUND 1, (S)—N—((S)-1-(2-chlorophenyl)-2-((3,3-difluorocyclobutyl)amino)-2-oxoethyl)-1-(4-cyanopyridin-2-yl)-N-(5-fluoropyridin-3-yl)-5-oxopyrrolidine-2-carboxamide]
Safety and tolerability [2]: safe and well tolerated
